Results as given in the supplement of paper PMC10307832.

Legend:
Experiment in all cases: relative viability (nuclei count vs DMSO), 5 days (fraction); higher = more cells survive
[1] = compound: CC(C)N(CCCNC(=O)Nc1ccc(C(C)(C)C)cc1)C[C@H]1O[C@@H](n2ccc3c(N)ncnc32)[C@H](O)[C@@H]1O + CC(=O)Nc1cccc(-n2c(=O)n(C3CC3)c(=O)c3c(Nc4ccc(I)cc4F)n(C)c(=O)c(C)c32)c1 [Trametinib] (partner 0.02 µM)
Procedure, shortened: (§1)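 Relative viability was taken as the ratio of nuclei in treated wells to nuclei in vehicle wells. Lung cancer cell lines in 1536-well plates received compounds by pin tool one day after seeding, either one drug alone or a fixed anchor-drug dose plus five library-drug doses (not always all listed) in √10 steps. Nuclei were counted on 4× images after 5 days of treatment, and values are medians of duplicate plates.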

[2] = compound: CC(C)=CC[C@@H](O)C1=CC(=O)c2c(O)ccc(O)c2C1=O [Shikonin] + CS(=O)(=O)N1CCN(Cc2cc3nc(-c4cccc5[nH]ncc45)nc(N4CCOCC4)c3s2)CC1 [Pictilisib] (partner 1 µM)
Procedure, shortened: as §1

[3] = compound: CC(C)=CC[C@@H](O)C1=CC(=O)c2c(O)ccc(O)c2C1=O [Shikonin] + C[C@@H](Oc1cc(-c2cnn(C3CCNCC3)c2)cnc1N)c1c(Cl)ccc(F)c1Cl [Crizotinib] (partner 1 µM)
Procedure, shortened: as §1

[4] = compound: CC(C)N(CCCNC(=O)Nc1ccc(C(C)(C)C)cc1)C[C@H]1O[C@@H](n2ccc3c(N)ncnc32)[C@H](O)[C@@H]1O + CC(C)C[C@H](NC(=O)[C@H](Cc1ccccc1)NC(=O)c1cnccn1)B(O)O [Bortezomib] (partner 0.002 µM)
Procedure, shortened: as §1

UMC-11
relative viability ([1]; first compound 0.08 µM): 0.691
relative viability ([1]; first compound 0.253 µM): 0.541
relative viability ([1]; first compound 0.8 µM): 0.588
relative viability ([1]; first compound 2.53 µM): 0.789
relative viability ([1]; first compound 8 µM): 0.796
relative viability ([2]; first compound 0.01 µM): 0.736
relative viability ([2]; first compound 0.1 µM): 0.999
relative viability ([2]; first compound 0.3162 µM): 0.76
relative viability ([2]; first compound 1 µM): 0.97
relative viability ([3]; first compound 0.01 µM): 0.745
relative viability ([3]; first compound 0.1 µM): 0.559
relative viability ([3]; first compound 0.3162 µM): 0.658
relative viability ([3]; first compound 1 µM): 0.633
relative viability ([4]; first compound 0.08 µM): 0.654
relative viability ([4]; first compound 0.253 µM): 0.531
relative viability ([4]; first compound 0.8 µM): 0.673
relative viability ([4]; first compound 2.53 µM): 0.79
relative viability ([4]; first compound 8 µM): 0.617
